The text below walks through data of patent US9249131B2, “Modulators of ATP-binding cassette transporters” (Vertex Pharmaceuticals Incorporated, priority 2003, dated 2016).

For this test, the target named is T1, ΔF508-CFTR (Homo sapiens, UniProt P13569, DEL508-508).
T1 construct: expressed in transfected cells; host or cells: NIH3T3 mouse fibroblasts stably expressing ΔF508-CFTR for the optical, whole-cell and single-channel assays; Fisher rat epithelial (FRT) cells for Ussing chamber follow-up
Briefly: Assays for ΔF508-CFTR correction and potentiator properties (membrane potential optical and electrophysiological methods). It is filed as cell-based. As to conditions: CFTR modulation; for % Activity: % Efficacy; for EC50: tested using the above methods. In short, it runs like this:
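NIH3T3 mouse fibroblasts stably expressing ΔF508-CFTR were used, with membrane potential read by DiSBAC2(3)/CC2-DMPE FRET on VIPR. Correctors: 16 h compound exposure at 37 °C, then activation with forskolin plus genistein in Cl⁻-free medium. Potentiators: cells held 24 h at 27 °C, compound added in Cl⁻-free medium, 2-10 μM forskolin 22 s later (final Cl⁻ 28 mM).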

T1 sequence (P13569 with tags, fused parts or gaps DEL508-508): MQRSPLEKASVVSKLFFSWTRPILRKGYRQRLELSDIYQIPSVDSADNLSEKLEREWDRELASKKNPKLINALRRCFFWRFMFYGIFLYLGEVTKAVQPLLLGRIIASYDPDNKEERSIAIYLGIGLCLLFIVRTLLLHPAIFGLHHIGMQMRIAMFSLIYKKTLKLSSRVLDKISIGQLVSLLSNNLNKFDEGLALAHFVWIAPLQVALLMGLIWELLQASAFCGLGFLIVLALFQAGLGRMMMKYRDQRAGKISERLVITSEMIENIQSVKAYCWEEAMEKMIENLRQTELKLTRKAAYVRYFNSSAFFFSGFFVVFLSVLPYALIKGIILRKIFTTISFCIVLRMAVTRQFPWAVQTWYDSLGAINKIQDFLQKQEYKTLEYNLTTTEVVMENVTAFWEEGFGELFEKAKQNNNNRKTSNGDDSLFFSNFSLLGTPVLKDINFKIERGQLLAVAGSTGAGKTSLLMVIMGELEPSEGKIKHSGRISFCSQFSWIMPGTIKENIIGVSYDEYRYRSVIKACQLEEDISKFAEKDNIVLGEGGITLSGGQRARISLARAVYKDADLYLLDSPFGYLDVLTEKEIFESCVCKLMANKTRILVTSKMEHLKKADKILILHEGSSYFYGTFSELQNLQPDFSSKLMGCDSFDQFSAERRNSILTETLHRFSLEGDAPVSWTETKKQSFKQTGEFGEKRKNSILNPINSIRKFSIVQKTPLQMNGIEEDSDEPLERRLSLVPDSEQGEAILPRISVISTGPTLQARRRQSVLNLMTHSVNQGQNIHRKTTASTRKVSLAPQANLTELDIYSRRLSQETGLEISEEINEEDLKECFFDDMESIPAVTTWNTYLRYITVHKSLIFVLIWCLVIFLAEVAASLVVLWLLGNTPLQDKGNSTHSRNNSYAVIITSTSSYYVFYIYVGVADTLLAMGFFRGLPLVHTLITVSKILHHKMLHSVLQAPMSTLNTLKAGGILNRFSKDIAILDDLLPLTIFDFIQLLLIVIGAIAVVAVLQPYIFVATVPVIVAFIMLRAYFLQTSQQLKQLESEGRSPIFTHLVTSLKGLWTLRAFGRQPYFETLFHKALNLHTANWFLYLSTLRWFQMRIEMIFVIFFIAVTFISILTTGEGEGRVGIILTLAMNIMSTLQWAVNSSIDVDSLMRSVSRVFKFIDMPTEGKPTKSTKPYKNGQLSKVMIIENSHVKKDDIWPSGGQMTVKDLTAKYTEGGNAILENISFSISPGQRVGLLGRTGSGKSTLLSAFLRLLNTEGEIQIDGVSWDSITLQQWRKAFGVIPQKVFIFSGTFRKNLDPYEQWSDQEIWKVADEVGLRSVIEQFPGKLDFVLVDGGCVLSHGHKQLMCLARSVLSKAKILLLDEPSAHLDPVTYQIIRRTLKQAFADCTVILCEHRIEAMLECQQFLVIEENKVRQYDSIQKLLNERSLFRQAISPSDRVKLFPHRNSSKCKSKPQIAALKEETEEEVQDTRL

In the case of `O=C(Nc1ncc(Cc2ccccc2Cl)s1)C(c1ccccc1)N1CCC(O)CC1` (stereo not drawn) [compound 248], the “% Activity” value was “++ (“++” means between 25% to 100%)” and the EC50 was below 10 µM.
For `O=C(Nc1ncc(Cc2ccccc2Cl)s1)C(c1ccccc1)N1CCN(c2ncccn2)CC1` (stereo not drawn) [compound 249], the “% Activity” value is recorded as “++ (“++” means between 25% to 100%)” and the half-maximal effective concentration (EC50) is below 10 µM.
As for `O=C(Nc1ncc(Cc2ccccc2Cl)s1)C(NC1CCCC1)c1ccccc1` (stereo not drawn) [compound 250], the “% Activity” value was “++ (“++” means between 25% to 100%)” and the EC50 is below 10 µM.
Turning to `CCC(Nc1ccccc1)C(=O)Nc1ncc(Cc2ccccc2Cl)s1` (stereo not drawn) [compound 251], the “% Activity” value is listed as “++ (“++” means between 25% to 100%)” and the 50% effective concentration (EC50) was below 10 µM.
On to `CCC(Oc1ccccc1)C(=O)Nc1ncc(Cc2ccccc2Cl)s1` (stereo not drawn) [compound 252], for which the “% Activity” value is on record as “++ (“++” means between 25% to 100%)” and the EC50 lay in the range of 10 to 25 µM.
Consider `CCOC(=O)C1CCCCN1C(C(=O)Nc1ncc(Cc2ccccc2Cl)s1)c1ccccc1` (stereo not drawn) [compound 253], for which the “% Activity” value is reported as “++ (“++” means between 25% to 100%)” and the EC50 lay in the range of 25 to 60 µM.
`CN(Cc1ccccc1)C(C(=O)Nc1ncc(Cc2ccccc2Cl)s1)c1ccccc1` (stereo not drawn) [compound 254]: the “% Activity” value was “++ (“++” means between 25% to 100%)” and the EC50 is below 10 µM.
Regarding `CCC(C(=O)Nc1ncc(Cc2ccccc2Cl)s1)c1cccnc1` (stereo not drawn) [compound 255], the “% Activity” value is “++ (“++” means between 25% to 100%)” and the EC50 is below 10 µM.
On to `N#Cc1ccccc1Cc1cnc(NC(=O)C(c2ccccc2)C2CCCCC2)s1` (stereo not drawn) [compound 256], for which the “% Activity” value is “++ (“++” means between 25% to 100%)” and the EC50 was below 10 µM.
On to `CC(C(=O)Nc1ncc(Cc2ccccc2C#N)s1)c1ccccc1` (stereo not drawn) [compound 257], for which the “% Activity” value was “++ (“++” means between 25% to 100%)” and the EC50 was in the range of 25 to 60 µM.
For `CCC(C(=O)Nc1ncc(Cc2ccccc2C#N)s1)c1ccccc1` (stereo not drawn) [compound 258], in that order: “++ (“++” means between 25% to 100%)” and 10 to 25 µM.
`CCC(C)C(C(=O)Nc1ncc(Cc2ccccc2C#N)s1)c1ccccc1` (stereo not drawn) [compound 259]: the “% Activity” value was “++ (“++” means between 25% to 100%)” and the EC50 was below 10 µM.
For `N#Cc1ccccc1Cc1cnc(NC(=O)C(c2ccccc2)C2CCCC2)s1` (stereo not drawn) [compound 260], in that order: “++ (“++” means between 25% to 100%)” and below 10 µM.
For `CC(C)C(C(=O)Nc1ncc(Cc2ccccc2C#N)s1)c1ccccc1` (stereo not drawn) [compound 261], in that order: “++ (“++” means between 25% to 100%)” and below 10 µM.
For `CCC(C(=O)Nc1ncc(C(=O)c2ccccc2Cl)s1)c1ccccc1` (stereo not drawn) [compound 262], in that order: “++ (“++” means between 25% to 100%)” and 25 to 60 µM.
Consider `CCC(C(=O)Nc1ncc(C(O)c2ccccc2Cl)s1)c1ccccc1` (stereo not drawn) [compound 263], for which the “% Activity” value is listed as “++ (“++” means between 25% to 100%)” and the concentration giving a half-maximal response (EC50) is below 10 µM.
Take `CCC(C(=O)Nc1nc2ccc(S(C)(=O)=O)cc2s1)c1ccccc1` (stereo not drawn) [compound 264]: the “% Activity” value is “++ (“++” means between 25% to 100%)” and the 50% effective concentration (EC50) was 25 to 60 µM.
On to `CCOc1ccc2nc(NC(=O)C(CC)c3ccccc3)sc2c1` (stereo not drawn) [compound 265], for which the “% Activity” value is reported as “+++ (“+++” means >100%)” and the EC50 is below 10 µM.
On to `CCC(C(=O)Nc1nc2ccc(OC)cc2s1)c1ccccc1` (stereo not drawn) [compound 266], for which the “% Activity” value is given as “++ (“++” means between 25% to 100%)” and the 50% effective concentration (EC50) was below 10 µM.
For `CCC(C(=O)Nc1nc2cc(C)c(C)cc2s1)c1ccccc1` (stereo not drawn) [compound 267], the “% Activity” value is listed as “++ (“++” means between 25% to 100%)” and the EC50 was below 10 µM.
Regarding `CCC(C(=O)Nc1nc2cccc(C)c2s1)c1ccccc1` (stereo not drawn) [compound 268], the “% Activity” value is given as “++ (“++” means between 25% to 100%)” and the EC50 was below 10 µM.
On to `COC(=O)CC(C(=O)Nc1ncc(Cc2ccccc2Cl)s1)c1ccccc1` (stereo not drawn) [compound 269], for which the “% Activity” value is given as “++ (“++” means between 25% to 100%)” and the EC50 was below 10 µM.
Take `CCC(C(=O)Nc1ncc(Cc2ccccc2Cl)s1)c1ccc(OC)cc1` (stereo not drawn) [compound 270]: the “% Activity” value was “++ (“++” means between 25% to 100%)” and the EC50 was below 10 µM.
Turning to `CC(CC(=O)Nc1ncc(Cc2ccccc2Cl)s1)c1ccccc1` (stereo not drawn) [compound 271], the “% Activity” value is “++ (“++” means between 25% to 100%)” and the EC50 is below 10 µM.
Take `CN(C)C(Cc1ccccc1)C(=O)Nc1ncc(Cc2ccccc2Cl)s1` (stereo not drawn) [compound 272]: the “% Activity” value is “+++ (“+++” means >100%)” and the EC50 is below 10 µM.
Consider `CCC(C(=O)Nc1ncc(Cc2ccccc2OC)s1)c1ccc(OC)cc1` (stereo not drawn) [compound 273], for which the “% Activity” value is “++ (“++” means between 25% to 100%)” and the concentration giving a half-maximal response (EC50) was below 10 µM.
Regarding `COc1ccccc1Cc1cnc(NC(=O)CC(C)c2ccccc2)s1` (stereo not drawn) [compound 274], the “% Activity” value was “++ (“++” means between 25% to 100%)” and the EC50 is 25 to 60 µM.
For the molecule `COc1ccccc1Cc1cnc(NC(=O)C(Cc2ccccc2)N(C)C)s1` (stereo not drawn) [compound 275], the “% Activity” value was “++ (“++” means between 25% to 100%)” and the EC50 was 25 to 60 µM.
For `CC(CC(=O)Nc1ncc(Cc2ccccc2C#N)s1)c1ccccc1` (stereo not drawn) [compound 276], the “% Activity” value is reported as “++ (“++” means between 25% to 100%)” and the EC50 fell in the range of 25 to 60 µM.
Turning to `CN(C)C(Cc1ccccc1)C(=O)Nc1ncc(Cc2ccccc2C#N)s1` (stereo not drawn) [compound 277], the “% Activity” value was “++ (“++” means between 25% to 100%)” and the EC50 is 25 to 60 µM.
On to `CCC(C(=O)Nc1ncc(Cc2ccccc2Cl)n1C)c1ccccc1` (stereo not drawn) [compound 278], for which the “% Activity” value is “++ (“++” means between 25% to 100%)” and the half-maximal effective concentration (EC50) was below 10 µM.
For the molecule `Cc1csc(NC(=O)C(c2ccccc2)c2ccccc2)n1` [compound 279], the “% Activity” value is listed as “++ (“++” means between 25% to 100%)” and the EC50 was in the range of 25 to 60 µM.
For `CCOC(=O)c1csc(NC(=O)C(c2ccccc2)c2ccccc2)n1` [compound 280], in that order: “++ (“++” means between 25% to 100%)” and below 10 µM.
Take `CCOC(=O)Cc1csc(NC(=O)C(c2ccccc2)c2ccccc2)n1` [compound 281]: the “% Activity” value was “++ (“++” means between 25% to 100%)” and the EC50 was 10 to 25 µM.
On to `COc1ncccc1Cc1cnc(NC(=O)C(c2ccccc2)c2ccccc2)s1` [compound 282], for which the “% Activity” value is “++ (“++” means between 25% to 100%)” and the EC50 is below 10 µM.
For `CCC(C(=O)Nc1ncc(Cc2cccnc2OC)s1)c1ccccc1` (stereo not drawn) [compound 283], the “% Activity” value is “++ (“++” means between 25% to 100%)” and the EC50 is below 10 µM.
In the case of `CCC(C(=O)Nc1ncc(Cc2cccc(OC)c2)s1)c1ccccc1` (stereo not drawn) [compound 284], the “% Activity” value is “++ (“++” means between 25% to 100%)” and the EC50 is below 10 µM.
On to `CCC(C(=O)Nc1ncc(Cc2cc(F)ccc2OC)s1)c1ccccc1` (stereo not drawn) [compound 285], for which the “% Activity” value is “++ (“++” means between 25% to 100%)” and the EC50 was below 10 µM.
For `CCC(C(=O)Nc1ncc(Cc2ccc(OC)cc2)s1)c1ccccc1` (stereo not drawn) [compound 286], the “% Activity” value is on record as “++ (“++” means between 25% to 100%)” and the EC50 was below 10 µM.
Regarding `CCCc1nc(NC(=O)C(c2ccccc2)c2ccccc2)sc1C(=O)OCC` [compound 287], the “% Activity” value is on record as “++ (“++” means between 25% to 100%)” and the EC50 is below 10 µM.
For `CCCc1nc(NC(=O)C(CC)c2ccccc2)sc1C(=O)OCC` (stereo not drawn) [compound 288], in that order: “++ (“++” means between 25% to 100%)” and below 10 µM.
For the molecule `CCC(C(=O)Nc1nc2c(s1)C(=O)CCC2)c1ccccc1` (stereo not drawn) [compound 289], the “% Activity” value is “++ (“++” means between 25% to 100%)” and the EC50 was in the range of 25 to 60 µM.
